Laboratory results reported in patent publication US4792545A, “Boholmycin antibiotic” (Bristol-Myers Company, priority 1986, dated 1988).
In brackets after ≈: the same amount, converted by molar mass.

Assays:
S. aureus 209P = assay: MIC by serial agar dilution; assay type: cell-based; details: Staphylococcus aureus; S. aureus 209P; medium A: Nutrient agar; read-out: MIC
S. aureus Smith [1] = assay: MIC by serial agar dilution; assay type: cell-based; details: Staphylococcus aureus; S. aureus Smith; medium A: Nutrient agar; read-out: MIC
S. aureus A20239 = assay: MIC by serial agar dilution; assay type: cell-based; details: Staphylococcus aureus; S. aureus A20239, kanamycin resistant strain; medium A: Nutrient agar; read-out: MIC
M. luteus PCI-1001 = assay: MIC by serial agar dilution; assay type: cell-based; details: Micrococcus luteus, PCI1001; M. luteus PCI-1001; medium A: Nutrient agar; read-out: MIC
M. flavus D-12 = assay: MIC by serial agar dilution; assay type: cell-based; details: Micrococcus flavus, D12, medium A: Nutrient agar, read-out: MIC
B. subtilis ATCC6633 = assay: MIC by serial agar dilution; assay type: cell-based; details: Bacillus subtilis, medium A: Nutrient agar, read-out: MIC
B. anthracis IID-115 = assay: microbe, parasite or virus in culture; assay type: cell-based; details: Bacillus anthracis, IID115
E. coli NIHJ = assay: MIC by serial agar dilution; assay type: cell-based; details: Escherichia coli, medium A: Nutrient agar, read-out: MIC
E. coli Juhl [2] = assay: MIC by serial agar dilution; assay type: cell-based; details: Escherichia coli, medium A: Nutrient agar, read-out: MIC
E. coli K-12 = assay: MIC by serial agar dilution; assay type: cell-based; details: Escherichia coli, K12, medium A: Nutrient agar, read-out: MIC
E. coli A20664 = assay: MIC by serial agar dilution; assay type: cell-based; details: Escherichia coli; E. coli A20664, kanamycin resistant strain; medium A: Nutrient agar; read-out: MIC
E. coli JR35/c600 = assay: MIC by serial agar dilution; assay type: cell-based; details: Escherichia coli, JR35/C600
K. pneumoniae D-11 [3] = assay: MIC by serial agar dilution; assay type: cell-based; details: Klebsiella pneumoniae, D11, medium A: Nutrient agar, read-out: MIC
K. pneumoniae A9678 = assay: MIC by serial agar dilution; assay type: cell-based; details: Klebsiella pneumoniae, medium A: Nutrient agar, read-out: MIC
E. cloacae A20364 = assay: MIC by serial agar dilution; assay type: cell-based; details: Enterobacter cloacae; E. cloacae A20364, kanamycin resistant strain; medium A: Nutrient agar; read-out: MIC
E. cloacae A21006 = assay: MIC by serial agar dilution; assay type: cell-based; details: Enterobacter cloacae; E. cloacae A21006, kanamycin resistant strain; medium A: Nutrient agar; read-out: MIC
P. mirabilis A9554 = assay: MIC by serial agar dilution; assay type: cell-based; details: Proteus mirabilis, medium A: Nutrient agar, read-out: MIC
P. vulgaris A9436 = assay: MIC by serial agar dilution; assay type: cell-based; details: Proteus vulgaris, medium A: Nutrient agar, read-out: MIC
S. marcescens A20019 = assay: MIC by serial agar dilution; assay type: cell-based; details: Serratia marcescens, A20019
S. marcescens A22302 = assay: MIC by serial agar dilution; assay type: cell-based; details: Serratia marcescens, A22302
P. aeruginosa A9930 = assay: MIC by serial agar dilution; assay type: cell-based; details: Pseudomonas aeruginosa, medium A: Nutrient agar, read-out: MIC
P. aeruginosa A9843A = assay: microbe, parasite or virus in culture; assay type: cell-based; details: Pseudomonas aeruginosa, A9843A
P. aeruginosa A20601 = assay: MIC by serial agar dilution; assay type: cell-based; details: Pseudomonas aeruginosa; P. aeruginosa A20601, kanamycin resistant strain; medium A: Nutrient agar; read-out: MIC
Mycobacterium 607 D87 = assay: MIC by serial agar dilution; assay type: cell-based; details: Mycobacterium 607 D87; medium B: No. 1001 medium; read-out: MIC
Mycobacterium 607 D46 = assay: MIC by serial agar dilution; assay type: cell-based; details: Mycobacterium 607 D46, kanamycin resistant strain; medium B: No. 1001 medium; read-out: MIC
Mycobacterium phlei = assay: MIC by serial agar dilution; assay type: cell-based; details: Mycolicibacterium phlei; Mycobacterium phlei; medium B: No. 1001 medium; read-out: MIC
Mycobacterium ranae = assay: MIC by serial agar dilution; assay type: cell-based; details: Mycobacterium ranae; medium B: No. 1001 medium; read-out: MIC
E. coli D64 = assay: stimulating growth of streptomycin-dependent E. coli D64 (paper disc); assay type: cell-based; details: for Growth zone vs E. coli D64, hazy growth zone: value in parentheses
Description: The results are shown in Table 4 wherein the term "boholmycin" is used for short in referring to boholmycin dihydrochloride tetrahydrate.

B. subtilis PCI-219 = assay: inhibiting growth of B. subtilis PCI-219 (paper disc); assay type: cell-based; details: Bacillus subtilis, PCI219, 28° C., 18 hours
Method: Boholmycin dihydrochloride tetrahydrate was tested in comparison with streptomycin, glebomycin, myomycin B and kanamycin in respect to stimulating growth of E. coli D64 and in respect to inhibiting growth of B. subtilis PCI-219. The results are shown in Table 4 wherein the term "boholmycin" is used for short in referring to boholmycin dihydrochloride tetrahydrate.
*^1 8 mm paper disc containing 35 μl of test solution
*^3 Incubation at 28° C. for 18 hours

S. aureus Smith [4] = assay: in vivo efficacy in mice against experimental infection; details: Staphylococcus aureus, im, 120 h; mice, i.m. just before challenge, S. aureus Smith, 5 days observation; read-out: PD50
E. coli Juhl [5] = assay: as above; details: Escherichia coli, im, 120 h; mice, i.m. just before challenge, E. coli Juhl, 5 days observation; read-out: PD50
K. pneumoniae D-11 [6] = assay: as above; details: Klebsiella pneumoniae, D11, im, 120 h; mice, i.m. just before challenge, K. pneumoniae D-11, 5 days observation; read-out: PD50
[7] = toxic signs in mice, intravenous administration; assay type: in vivo; details: up to a dose of 1,000 mg/kg
solubility = assay type: physicochemical
stability in solution = assay type: physicochemical
basicity = assay type: physicochemical
bacteria = assay: in vitro antibacterial activity, Table 3 panel overall; assay type: cell-based
Method: The minimum inhibitory concentration (MIC) of boholmycin dihydrochloride tetrahydrate was determined by a serial agar dilution method in comparison with sorbistin A1, streptomycin and kanamycin. Nutrient agar (Difco) was used for all bacteria except for strains of Mycobacterium which were tested in No. 1001 agar.

[8] = system: experimental infections produced by S. aureus, E. coli and K. pneumoniae; assay: in vivo activity in mice, Table 5 overall; details: i.m.

## CNC1C(OC2C(O)C(OC3OC(CO)C(O)C(N)C3O)C(OC(N)=O)C(O)C2OC(N)=O)OCC(OC2OC(C(O)CO)C(O)C(O)C2O)C1O (centres unmarked) [Boholmycin]
S. aureus 209P
  MIC: 200 µg/mL (≈ 262 µM)
S. aureus Smith [1]
  MIC: 200 µg/mL (≈ 262 µM)
S. aureus A20239
  MIC: > 200 µg/mL
M. luteus PCI-1001
  MIC: 200 µg/mL (≈ 262 µM)
M. flavus D-12
  MIC: 100 µg/mL (≈ 131 µM)
B. subtilis ATCC6633
  MIC: 50 µg/mL (≈ 65.4 µM)
B. anthracis IID-115
  MIC: 25 µg/mL (≈ 32.7 µM)
E. coli NIHJ
  MIC: 50 µg/mL (≈ 65.4 µM)
E. coli Juhl [2]
  MIC: 100 µg/mL (≈ 131 µM)
E. coli K-12
  MIC: 25 µg/mL (≈ 32.7 µM)
E. coli A20664
  MIC: 12.5 µg/mL (≈ 16.3 µM)
E. coli JR35/c600
  MIC: 25 µg/mL (≈ 32.7 µM)
K. pneumoniae D-11 [3]
  MIC: 6.3 µg/mL (≈ 8.24 µM)
K. pneumoniae A9678
  MIC: 100 µg/mL (≈ 131 µM)
E. cloacae A20364
  MIC: 50 µg/mL (≈ 65.4 µM)
E. cloacae A21006
  MIC: 50 µg/mL (≈ 65.4 µM)
P. mirabilis A9554
  MIC: 50 µg/mL (≈ 65.4 µM)
P. vulgaris A9436
  MIC: 6.3 µg/mL (≈ 8.24 µM)
S. marcescens A20019
  MIC: 100 µg/mL (≈ 131 µM)
S. marcescens A22302
  MIC: 100 µg/mL (≈ 131 µM)
P. aeruginosa A9930
  MIC: 100 µg/mL (≈ 131 µM)
P. aeruginosa A9843A
  MIC: 200 µg/mL (≈ 262 µM)
P. aeruginosa A20601
  MIC: 12.5 µg/mL (≈ 16.3 µM)
Mycobacterium 607 D87
  MIC: 25 µg/mL (≈ 32.7 µM)
Mycobacterium 607 D46
  MIC: 25 µg/mL (≈ 32.7 µM)
Mycobacterium phlei
  MIC: 6.3 µg/mL (≈ 8.24 µM)
Mycobacterium ranae
  MIC: 25 µg/mL (≈ 32.7 µM)
E. coli D64; 10 mg/ml, 37° C., 45 hours
  Growth zone vs E. coli D64, hazy growth zone: 16 mm
E. coli D64; 40 mg/ml, 37° C., 45 hours
  Growth zone vs E. coli D64: 18 mm
  Growth zone vs E. coli D64, hazy growth zone: 23 mm
E. coli D64; result in words
  induction/stimulation of growth of streptomycin-dependent E. coli D64: induced the growth
B. subtilis PCI-219; 10 mg/ml
  zone of inhibition at 10000 µg/mL: 30 mm
B. subtilis PCI-219; 40 mg/ml
  zone of inhibition at 40000 µg/mL: 33 mm
S. aureus Smith [4]
  ED50: 75 mg/kg
E. coli Juhl [5]
  ED50: 100 mg/kg
K. pneumoniae D-11 [6]
  ED50: 65 mg/kg
[7]
  toxic signs: did not show any toxic signs
solubility; methanol and ethanol
  solubility in methanol and ethanol: slightly soluble in methanol and ethanol
solubility; other organic solvents
  solubility in other organic solvents: practically insoluble in other organic solvents
solubility; water
  solubility in water: freely soluble in water
Stability in solution; alkaline solution
  stability in alkaline solution: unstable in alkaline solution
Stability in solution; neutral and acidic solution
  stability in neutral and acidic solution: reasonably stable in neutral and acidic solution
basicity
  basicity: weakly basic
bacteria; Table 3 overall, vs sorbistin A1
  antibacterial activity compared with sorbistin A1: comparable to that of sorbistin A1
bacteria; Table 3 overall, vs streptomycin or kanamycin
  antibacterial activity compared with streptomycin or kanamycin: generally weaker than that of streptomycin or kanamycin
bacteria; resistant vs sensitive organisms
  activity against kanamycin and streptomycin-resistant organisms: as active against kanamycin and streptomycin-resistant organisms as against the sensitive ones
[8]
  in vivo activity compared with streptomycin and kanamycin: much less active than streptomycin and kanamycin
